This test addresses Human TASK-1 channels (Homo sapiens (Human), UniProt O14649). The test is described as follows: Activity on the TASK-1 channel in Xenopus oocytes (two-microelectrode voltage clamp). The note with it: for inhibition at 5 µM: percentage inhibition of TASK-1 control current, Xenopus oocytes; for IC50: human TASK-1 expressed in Xenopus oocytes, currents during 500 ms pulses to 40 mV, room temperature. The test is classed as cell-based. The procedure:
Determination of the activity on the TASK-1 channel in Xenopus oocytes:
Human TASK-1 channels were expressed in Xenopus oocytes. For this purpose, oocytes were isolated from Xenopus laevis and defolliculated. Subsequently, TASK-1-encoding RNA synthesized in vitro was injected into oocytes. After two days of TASK-1 protein expression, TASK-1 currents were measured by two-microelectrode voltage clamp. Data were acquired and analyzed using a TEC-10cx amplifier (NPI Electronic, Tamm, Germany) connected to an ITC-16 interface (Instrutech Corp., Long Island, USA) and Pulse software (HEKA Elektronik, Lambrecht, Germany). Oocytes were clamped to −90 mV and TASK-1 mediated currents were measured during 500 ms voltage pulses to 40 mV. Oocytes were continuously superfused with ND96 buffer containing: NaCl 96 mM, KCl2 mM, CaCl2 1.8 mM, MgCl2 1 mM, HEPES 5 mM (pH adjusted to 7.4 with NaOH). All experiments were performed at room temperature.
Test substances were consecutively added to the bath solution at rising concentrations. Compound effects were calculated as the percentage inhibition of
TASK-1 control current before compound application. IC50 values were obtained by fitting the data to the general dose-response equation.

Sequence of Human TASK-1 channels (O14649 whole entry): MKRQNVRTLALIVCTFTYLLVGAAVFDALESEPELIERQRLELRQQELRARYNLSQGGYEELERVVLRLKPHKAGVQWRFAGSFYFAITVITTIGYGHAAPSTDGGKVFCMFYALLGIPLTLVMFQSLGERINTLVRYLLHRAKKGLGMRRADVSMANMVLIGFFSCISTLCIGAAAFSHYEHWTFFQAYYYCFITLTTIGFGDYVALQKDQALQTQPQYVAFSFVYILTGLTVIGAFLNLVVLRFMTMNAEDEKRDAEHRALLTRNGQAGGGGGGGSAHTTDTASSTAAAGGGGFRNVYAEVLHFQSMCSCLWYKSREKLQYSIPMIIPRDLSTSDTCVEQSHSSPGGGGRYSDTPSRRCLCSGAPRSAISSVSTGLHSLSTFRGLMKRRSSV

As a reminder, the inhibition is the share of the control response that was lost under treatment. In turn, `CC(=O)N1CCc2c(c(-c3ccc(C(F)(F)F)cc3)nn2[C@@H]2c3cc(F)cc(F)c3C[C@H]2O)C1` [Example 11ae, 1-[1-((1R,2R)-4,6-Difluoro-2-hydroxy-indan-1-yl)-3-(4-trifluoromethyl-phenyl)-1,4,6,7-tetrahydro-pyrazolo[4,3-c]pyridin-5-yl]-ethanone] had an inhibition at 5 µM of 61%.
By IC50 is commonly meant the concentration that gives 50% inhibition. Read a low IC50 as inhibition by little substance. On to `CC(=O)N1CCc2c(c(-c3ccc(F)cc3)nn2[C@@H]2c3c(Cl)cc(Cl)cc3C[C@H]2O)C1` (racemic) [Example 11ac, racemic 1-[1-((1R,2R)-5,7-Dichloro-2-hydroxy-indan-1-yl)-3-(4-fluoro-phenyl)-1,4,6,7-tetrahydro-pyrazolo[4,3-c]pyridin-5-yl]-ethanone], for which the IC50 is 3880 nM.
`CC(C)N1CCc2c(c(-c3ccc(F)cc3)nn2[C@@H]2c3cc(F)cc(F)c3C[C@H]2O)C1` [Example 18b, (1R,2R)-4,6-Difluoro-1-[3-(4-fluoro-phenyl)-5-isopropyl-4,5,6,7-tetrahydro-pyrazolo[4,3-c]pyridin-1-yl]-indan-2-ol] showed an IC50 of 8190 nM.
The compound `CC(=O)N1CCc2c(c(-c3ccc(Cl)cc3)nn2[C@@H]2c3cc(F)cc(F)c3C[C@H]2O)C1` [Example 11ab, 1-[3-(4-Chloro-phenyl)-1-((1R,2R)-4,6-difluoro-2-hydroxy-indan-1-yl)-1,4,6,7-tetrahydro-pyrazolo[4,3-c]pyridin-5-yl]-ethanone] yielded an IC50 of 2970 nM.
In turn, `CCC(=O)O[C@@H]1Cc2c(F)cc(F)cc2[C@H]1n1nc(-c2cccc(C#N)c2)c2c1CCN(C(=O)CC)C2` [Example 15a, Propionic acid (1R,2R)-1-[3-(3-cyano-phenyl)-5-propionyl-4,5,6,7-tetrahydro-pyrazolo[4,3-c]pyridin-1-yl]-4,6-difluoro-indan-2-yl ester] yielded an inhibition at 5 µM of 51%.
`CC(=O)N1CCc2c(c(-c3cccc(C#N)c3)nn2[C@@H]2c3cc(Cl)ccc3C[C@H]2O)C1` [Example 11p, 3-[5-Acetyl-1-((1R,2R)-6-chloro-2-hydroxy-indan-1-yl)-4,5,6,7-tetrahydro-1H-pyrazolo[4,3-c]pyridin-3-yl]-benzonitrile]: the IC50 was found to be 685 nM.
In turn, `CCCN1CCc2c(c(-c3ccc(F)cc3)nn2[C@@H]2c3cc(F)cc(F)c3C[C@H]2O)C1` [Example 18f, (1R,2R)-4,6-Difluoro-1-[3-(4-fluoro-phenyl)-5-propyl-4,5,6,7-tetrahydro-pyrazolo[4,3-c]pyridin-1-yl]-indan-2-ol] had an inhibition at 5 µM of 67%.
Same read-out and setting: with `NC(=O)c1cccc(-c2nn([C@@H]3c4cc(F)cc(F)c4C[C@H]3O)c3c2CN(C(=O)C2CC2)CC3)c1` [Example 15b, 3-[5-Cyclopropanecarbonyl-1-((1R,2R)-4,6-difluoro-2-hydroxy-indan-1-yl)-4,5,6,7-tetrahydro-1H-pyrazolo[4,3-c]pyridin-3-yl]-benzamide] the figure was 24%.
The compound `CC(=O)N1CCc2c(c(-c3cccc(C#N)c3)nn2[C@@H]2c3cc(F)cc(C)c3C[C@H]2O)C1` [Example 19a, 3-[5-Acetyl-1-((1R,2R)-6-fluoro-2-hydroxy-4-methyl-indan-1-yl)-4,5,6,7-tetrahydro-1H-pyrazolo[4,3-c]pyridin-3-yl]-benzonitrile] registered an IC50 of 231 nM.
Same read-out and setting: with `CC(=O)N1CCc2c(c(-c3cccc(Cl)c3)nn2[C@@H]2c3cc(F)cc(F)c3C[C@H]2O)C1` [Example 11v, 1-[3-(3-Chloro-phenyl)-1-((1R,2R)-4,6-difluoro-2-hydroxy-indan-1-yl)-1,4,6,7-tetrahydro-pyrazolo[4,3-c]pyridin-5-yl]-ethanone] the figure was 1180 nM.
`CSc1cc(F)cc2c1C[C@@H](O)[C@@H]2n1nc(-c2cccc(C#N)c2)c2c1CCN(C(C)=O)C2` [Example 21c, 3-[5-Acetyl-1-((1R,2R)-6-fluoro-2-hydroxy-4-methylsulfanyl-indan-1-yl)-4,5,6,7-tetrahydro-1H-pyrazolo[4,3-c]pyridin-3-yl]-benzonitrile] registered an inhibition at 5 µM of 87%.
Consider `CC(=O)N1CCc2c(c(-c3cccc(C#N)c3)nn2[C@@H]2c3cc(F)cc(Cl)c3C[C@H]2O)C1` [Example 21a, 3-[5-Acetyl-1-((1R,2R)-4-chloro-6-fluoro-2-hydroxy-indan-1-yl)-4,5,6,7-tetrahydro-1H-pyrazolo[4,3-c]pyridin-3-yl]-benzonitrile], for which the IC50 is 393 nM.
The same measure, in the same setting: with `COc1ccc(F)c(-c2nn([C@@H]3c4cc(F)cc(F)c4C[C@H]3O)c3c2CN(C(C)=O)CC3)c1` [Example 11c, 1-[1-((1R,2R)-4,6-Difluoro-2-hydroxy-indan-1-yl)-3-(2-fluoro-5-methoxy-phenyl)-1,4,6,7-tetrahydro-pyrazolo[4,3-c]pyridin-5-yl]-ethanone] the figure was 204 nM; with `CC(=O)N1CCc2c(c(-c3ccc(F)cc3)nn2[C@@H]2c3cc(F)cc(F)c3C[C@H]2O)C1` [Example 11l, 1-[1-((1R,2R)-4,6-Difluoro-2-hydroxy-indan-1-yl)-3-(4-fluoro-phenyl)-1,4,6,7-tetrahydro-pyrazolo[4,3-c]pyridin-5-yl]-ethanone], 495 nM.
As for `COCCN1CCc2c(c(-c3ccc(F)cc3)nn2[C@@H]2c3cc(F)cc(F)c3C[C@H]2O)C1` [Example 18g], the inhibition at 5 µM turned out to be 56%.
In turn, `COC(=O)N1CCc2c(c(-c3cccc(C#N)c3)nn2[C@@H]2c3cc(F)cc(F)c3C[C@H]2O)C1` [Example 17a, 3-(3-Cyano-phenyl)-1-((1R,2R)-4,6-difluoro-2-hydroxy-indan-1-yl)-1,4,6,7-tetrahydro-pyrazolo[4,3-c]pyridine-5-carboxylic acid methyl ester] registered an IC50 of 260 nM.
In turn, `CO[C@@H]1Cc2c(F)cc(F)cc2[C@H]1n1nc(-c2ccc(F)cc2)c2c1CCN(C(C)=O)C2` [Example 16b, 1-[1-((1R,2R)-4,6-Difluoro-2-methoxy-indan-1-yl)-3-(4-fluoro-phenyl)-1,4,6,7-tetrahydro-pyrazolo[4,3-c]pyridin-5-yl]-ethanone] gave an IC50 of 1160 nM.
Turning to `COCCN1CCc2c(c(-c3cccc(C#N)c3)nn2[C@@H]2c3cc(F)cc(F)c3C[C@H]2O)C1` [Example 18d, 3-[1-((1R,2R)-4,6-Difluoro-2-hydroxy-indan-1-yl)-5-(2-methoxy-ethyl)-4,5,6,7-tetrahydro-1H-pyrazolo[4,3-c]pyridin-3-yl]-benzonitrile], the inhibition at 5 µM turned out to be 83%.
`CC(=O)N1CCc2c(c(-c3ccc(F)cc3)nn2[C@@H]2c3cc(Cl)c(Cl)cc3C[C@H]2O)C1` (racemic) [Example 11u, racemic 1-[1-((1R,2R)-5,6-Dichloro-2-hydroxy-indan-1-yl)-3-(4-fluoro-phenyl)-1,4,6,7-tetrahydro-pyrazolo[4,3-c]pyridin-5-yl]-ethanone]: the IC50 was determined as 1010 nM.
The same measure, in the same setting: with `CC(=O)N1CCc2c(c(-c3cccc(C(F)(F)F)c3)nn2[C@H]2c3cc(F)cc(F)c3C[C@@H]2O)C1` [Example 11h, 1-[1-((1S,2S)-4,6-Difluoro-2-hydroxy-indan-1-yl)-3-(3-trifluoromethyl-phenyl)-1,4,6,7-tetrahydro-pyrazolo[4,3-c]pyridin-5-yl]-ethanone] the figure was 370 nM.
As for `N#Cc1cccc(-c2nn([C@@H]3c4cc(F)cc(F)c4C[C@H]3O)c3c2CN(C(=O)C2CC2)CC3)c1` [Example 14b, 3-[5-Cyclopropanecarbonyl-1-((1R,2R)-4,6-difluoro-2-hydroxy-indan-1-yl)-4,5,6,7-tetrahydro-1H-pyrazolo[4,3-c]pyridin-3-yl]-benzonitrile], the IC50 is 83.1 nM.
On the same count and under the same terms, with `CC(=O)N1CCc2c(c(-c3ccc(F)c(C(F)(F)F)c3)nn2[C@H]2c3cc(F)cc(F)c3C[C@]2(C)O)C1` (racemic) [Example 11i, racemic 1-[1-((1S,2S)-4,6-Difluoro-2-hydroxy-2-methyl-indan-1-yl)-3-(4-fluoro-3-trifluoromethyl-phenyl)-1,4,6,7-tetrahydro-pyrazolo[4,3-c]pyridin-5-yl]-ethanone] the figure was 375 nM; with `CC(=O)N1CCc2c(c(-c3cccc(C#N)c3)nn2[C@@H]2c3cc(F)cc(F)c3C[C@@]2(C)O)C1` (racemic) [Example 11w, Racemic 3-[5-Acetyl-1-((1R,2R)-4,6-difluoro-2-hydroxy-2-methyl-indan-1-yl)-4,5,6,7-tetrahydro-1H-pyrazolo[4,3-c]pyridin-3-yl]-benzonitrile], 1260 nM.
Same read-out and setting: with `CC(=O)N1CCc2c(c(-c3cccc(C(F)(F)F)n3)nn2[C@@H]2c3cc(F)cc(F)c3C[C@H]2O)C1` [Example 11e, 1-[1-((1R,2R)-4,6-Difluoro-2-hydroxy-indan-1-yl)-3-(6-trifluoromethyl-pyridin-2-yl)-1,4,6,7-tetrahydro-pyrazolo[4,3-c]pyridin-5-yl]-ethanone] the figure was 239 nM; with `CC(=O)N1CCc2c(c(-c3cccc(OC(F)(F)F)c3)nn2[C@@H]2c3cc(F)cc(F)c3C[C@H]2O)C1` [Example 11a, 1-[1-((1R,2R)-4,6-Difluoro-2-hydroxy-indan-1-yl)-3-(3-trifluoromethoxy-phenyl)-1,4,6,7-tetrahydro-pyrazolo[4,3-c]pyridin-5-yl]-ethanone], 171 nM; with `CC(=O)N1CCc2c(c(-c3cccc(C#N)c3)nn2[C@@H]2c3cc(Cl)cc(Cl)c3C[C@H]2O)C1` [Example 11g, 3-[5-Acetyl-1-((1R,2R)-4,6-dichloro-2-hydroxy-indan-1-yl)-4,5,6,7-tetrahydro-1H-pyrazolo[4,3-c]pyridin-3-yl]-benzonitrile], 350 nM.

Source of the values: patent US9034897B2, “Indanyl-substituted 4,5,6,7-tetrahydro-1H-pyrazolo[4,3-C]pyridines, their use as medicament, and pharmaceutical preparations comprising them” (SANOFI, priority 2011, dated 2015).
